Measurements: US20020147158A1, “Composition and method for preventing and treating sinusoidal obstruction syndrome and radiation-induced liver disease” (University of Southern California, priority 2001, published 2002)
“Also recorded” adds a separate entry of the source.

Columns and labels:
[1] = system: monocrotaline-induced hepatic venoocclusive disease; assay: monocrotaline-induced rat model of SOS (hepatic venoocclusive disease), blinded histologic scoring; format: in vivo; settings: for prevention of SOS (overall histologic score, FIG. 1): monocrotaline model
Excerpt: This FIGURE describes the effect of MMP inhibition in the in monocrotaline-induced model of SOS. Injury is rated as absent (−) or as one, two or three plus. The overall score reflects central vein (CV) endothelial damage, hemorrhage and coagulative necrosis: 2-3 points is considered mild SOS, 4-6 points is considered moderate SOS and 7-9 points is severe disease. The MMP2/MMP9 inhibitor used is 2-[(4-biphenylylsulfonyl)amino]-3-phenyl-propionic acid.
The present invention provides methods for using matrix metalloproteinase inhibitors to prevent and treat chemotherapy-induced liver disease, such as SOS and radiation-induced liver disease. These studies were done in an in vivo model of monocrotaline-induced hepatic venoocclusive disease which closely resembles the human disease.^8 Two commercially available MMP inhibitors were tested in the in vivo rat model of hepatic venoocclusive disease: doxycycline and the MMP-2/MMP-9 inhibitor, 2-[(4-biphenylsulfonyl)amino]-3-phenyl-propionic acid. Doxycycline, 15 mg/kg was given twice daily by gavage prior to onset of the disease and continued until the time of sacrifice. 2-[(4-biphenylsulfonyl)amino]-3-phenyl-propionic acid, 200 μg/hour was infused into the portal circulation until the time of sacrifice. A systematic scoring system was devised to review all the changes associated with hepatic venoocclusive disease.
The rats that were treated with the MMP inhibitors were sacrificed on day 4, which is the time-point with most severe disease in this model of hepatic venoocclusive disease when no therapeutic interventions are used. […] Both of these MMP inhibitors prevent hepatic venoocclusive disease in a dose-dependent manner, these showing that this is a class effect of MMP inhibitors and characteristic of MMP inhibition.

[2] = system: MMPs; settings: stated in words, no test described; cited from earlier work

O=C(O)C(Cc1ccccc1)NS(=O)(=O)c1ccc(-c2ccccc2)cc1 (centres unmarked) [2-[(4-biphenylsulfonyl)amino]-3-phenyl-propionic acid]
hepatic venoocclusive disease on blinded pathology scoring ([1]; day 4, 200 μg/hour infused intraportally by osmotic minipump): absence of hepatic venoocclusive disease | protection from liver changes at lower doses ([1]; doses lower than 15 mg/kg twice daily (doxycycline) or 200 μg/hour (BPP)): partial protection | prevention of SOS (overall histologic score, FIG. 1) ([1]; day 4, listed as 2-[(4-biphenylylsulfonyl)amino]-3-phenyl-propionic acid): completely prevented | prevention of SOS (overall histologic score, FIG. 1) ([1]; day 4, listed as BPP): completely inhibits SOS

Cc1c2c(c(O)c3c(O)cccc13)C(=O)[C@]1(O)C(=O)C(C(N)=O)=C(O)[C@@H](N(C)C)[C@@H]1C2 [anhydrotetracycline]
inhibitory effect on MMPs [2]: weak MMP inhibitors; also recorded: little inhibitory effect on MMPs | prevention of SOS (overall histologic score, FIG. 1) ([1]; day 4): do not prevent SOS; also recorded: minimal protective effect

isochlorotetracycline
inhibitory effect on MMPs [2]: weak MMP inhibitors; also recorded: little inhibitory effect on MMPs | prevention of SOS (overall histologic score, FIG. 1) ([1]; day 4): do not prevent SOS; also recorded: minimal protective effect
